Tests used:
[1] = method code SF-HPLC, from DOI: 10.1002/jps.2600830309, PMID: 8207673; conditions: pH 7.5

Compound	logD (pH 7.5)	further results
CCOc1c(OC)cc(I)c(O)c1C(=O)NC[C@@H]1CCCN1CC	–	logD (pH 7.4): 2.52
CCc1cc(Cl)c(O)c(C(=O)NC[C@@H]2CCCN2CCF)c1OC	4.71	–
CCOc1ccc(I)c(O)c1C(=O)NC[C@@H]1CCCN1CC	–	logD [1]: 2.84
COc1cc(Br)cc(C(=O)NC[C@@H]2CCCN2CCF)c1OC	3.22	–
